Data published in US12590057B2, “Crystalline complexes” (Theracryf PLC, priority 2020, dated 2026).

Tests used:
Type in all cases: physicochemical
[1] = KF water content of stability samples; details: for KF water content: Duma bottles without desiccant
Protocol: The water content of each sample was measured on a Metrohm 874 Oven Sample Processor at 150° C. with 851 Titrano Coulometer using Hydranal Coulomat AG oven reagent and nitrogen purge. Weighed solid samples were introduced into a sealed sample vial. Approximately 10 mg of sample was used per titration and duplicate determinations were made. […] Data collection and analysis were performed using Tiamo software.
The water content of samples of Form 1 (batch ref. LS19-0004-3-8002), Form 3 prepared by minimally-agitated drying ([…]; batch ref. 491-PAL-18) and Form 3 prepared by continuously-agitated filter drying (Example 5B trial 5; batch ref. 00173-005) was analysed by KF at the start of the stability study (initial) and after 2, 4 and 8 weeks storage in 60 ml Duma® bottles fitted with 45 mm Duma® caps (without desiccant) at 25° C./60% RH—see Table 16;
(§1) In a separate study, samples of Form 3 (Example 5.3; batch ref. 491-PAL-18) having an initial water content by KF of 2.3% w/w were tested for water content at various time points after storage double bagged in a HDPE bottle under various conditions as shown in Table 17.

[2] = Equilibrium solubility in biorelevant media (shake flask); design: Equilibrium solubility, Mean Conc: unit not given here; details: for equilibrium solubility in words: 0.1 M HCl and FaSSIF media; for Equilibrium solubility, Mean Conc: 37° C.
Protocol: The equilibrium solubility of samples of Form 1 (batch ref […]-0004-S-8002) and Form 3 (Example 5.4.1 (batch ref, 491PAL22; A-19-0132)) in 0.1M HCl and FaSSIF media at 37° C. was carried out using the shake flask method. Samples were taken at 4 hours and 24 hours and centrifuged for 5 minutes at 15,000 rpm. The supernatant was removed and diluted with appropriate solvent prior to HPLC analysis of the parent concentrations.

[3] = Kinetic solubility in biorelevant media; details: for Kinetic solubility, Mean conc: 37° C.
Protocol: A small-scale kinetic solubility study was carried out at a nominal concentration of 200-400 mg/ml to ensure solid material remained at the end of the experiment for XRPD analysis. Approximately 100 mg of sample—Form 1 (batch ref L17-0004-S-8002) or Form 3 (Example 5.4.1 (batch ref. 491PAL22; A-19-0132)) was weighed into a 1 ml vial and 250 μl of 0.1 M HCl was added to the vial for the 15 and 30 minute timepoints and 500 μl of a 1:1 mixture of 0.1 M HCl and FaSSIF was added to the vial for the 60 and 180 minute timepoints, The vial was agitated and maintained at 37° C.
The study was carried out in duplicate. Each sample was centrifuged to remove suspended solids. An aliquot of the supernatant was transferred to a second vial for further centrifugation and then transferred to an LC vial, diluted with an appropriate solvent and analysed by HPLC for parent compound. The residual solids were analysed by XRPD.

[4] = Typical water content of the crystalline forms
Protocol: The water content of a sample can be determined by any suitable means as will be apparent to one of skill in the art. In one embodiment, the water content is determined by Karl-Fischer titration. In one embodiment, the water content is determined by thermogravimetric analysis (TGA). In one embodiment, the water content is determined by gravimetric vapour sorption (GVS). After formation of the crystalline complex according to the invention, the water content may be as low as 1-3% w/w. However, after exposure of the complex to ambient conditions (25° C., 40% RH) the material typically equilibrates (e.g. over a period of 3-7 days) to a water content of up to 5-7% w/w. It has been found, however, that Form 3, once equilibrated to 5-7% w/w water, maintains physical form at 60% RH making it unexpectedly stable over the 0% and 60% humidity range.

[5] = XRPD physical form after storage; details: days 7, 9 and 29 after removal from drying oven, ambient conditions
Protocol: XRPD diffractograms were collected on a PANalytical Empyrean diffractometer using Cu Kα radiation (45 kV, 40 mA) in transmission geometry. A 0.5° sat, 4 mm mask and 0.04 rad Soller slits with a focusing mirror were used on the incident beam. A PIXcel^3D detector, placed on the diffracted beam, was fitted with a receiving slit and 0.04 rad Soller slits. The software used for data collection was X'Pert Data Collector using X'Pert Operator Interface. The data were analysed and presented using Diffrac Plus EVA or HighScore Plus.
After removal from the vacuum oven (day 0), Example 3 was reanalysed by XRPD in reflection mode on days 7, 9 and 29.
as §1

[6] = Aqueous manipulation (slurry in water, XRPD)
Protocol: Example 3—Form 3 (100 mg) was placed in a 4 ml vial, to which H2O (200 μl, 2 volumes) was added. The sample was capped and left at ambient temperature overnight. A spatula fill of the slurry was placed in a well and analysed by XRPD in transmission mode. The XRPD analysis was repeated every 5 minutes for 36 minutes on the same sample in the well. An XRPD was recorded 4 hours later too.

Compression testing = details: 20 kg, 50 kg and 100 kg for 2 minutes each
Protocol: 15 mg samples of Example 3 (Form 3) were compressed into 3 mm recess discs under 20 kg, 50 kg and 100 kg of pressure for 2 minutes each.

[7] = Storage at high humidity and/or elevated temperature
Protocol: A sample of Example 3 (Form 3) was stored at 25° C. and 97% RH for 7 days.
A sample of Example 3 (Form 3) was stored at 40° C. and 75% RH for 7 days.

[8] = 0.1M HCl, 4 Hours, Form 3 = Example 5.4.1
[9] = FaSSIF, 4 Hours, atypical HPLC data and variable results
[10] = FaSSIF, 24 Hours, atypical HPLC data and variable results
[11] = 15 mins (simulated gastric), 0.1 M HCl, Form 3 = Example 5.4.1
[12] = 30 mins (simulated gastric), 0.1 M HCl
[13] = 60 mins (simulated intestinal), 1:1 0.1 M HCl and FaSSIF
[14] = 180 mins (simulated intestinal), 1:1 0.1 M HCl and FaSSIF

C[S+]([O-])CCCCN=C=S.OCC1OC2OC3C(CO)OC(OC4C(CO)OC(OC5C(CO)OC(OC6C(CO)OC(OC7C(CO)OC(OC1C(O)C2O)C(O)C7O)C(O)C6O)C(O)C5O)C(O)C4O)C(O)C3O (stereo not drawn) [Form 1]
KF water content ([1]; 2 weeks, 25° C./60% RH): 8.4 % w/w | KF water content ([1]; 4 weeks, 25° C./60% RH): 6.5 % w/w | KF water content ([1]; 8 weeks, 25° C./60% RH): 11.1 % w/w | KF water content ([1]; Initial, 25° C./60% RH study): 8.6 % w/w | equilibrium solubility in words [2]: high and comparable | Equilibrium solubility, Mean Conc [2, 8]: 632 | Equilibrium solubility, Mean Conc ([2]; 0.1M HCl, 24 Hours): 2605 | Equilibrium solubility, Mean Conc [2, 9]: 271 | Equilibrium solubility, Mean Conc [2, 10]: 247 | XRPD analysis of residual solids ([3]; 15 mins (simulated gastric)): Form 1 | Kinetic solubility, Mean conc [3, 11]: approximately 300 mg/ml | Kinetic solubility, Mean conc ([3]; 15 mins (simulated gastric), 0.1 M HCl, Form 3 = Example 5.4.1, listed as 1): 319 mg/mL | XRPD analysis of residual solids ([3]; 30 mins (simulated gastric)): Form 1 | Kinetic solubility, Mean conc [3, 12]: 318 mg/mL | XRPD analysis of residual solids ([3]; 60 mins (simulated intestinal)): Form 1 | Kinetic solubility, Mean conc [3, 13]: approximately 180 mg/ml | Kinetic solubility, Mean conc ([3]; 60 mins (simulated intestinal), 1:1 0.1 M HCl and FaSSIF, listed as 1): 191 mg/mL | XRPD analysis of residual solids ([3]; 180 mins (simulated intestinal)): Form 1 | Kinetic solubility, Mean conc [3, 14]: approximately 180 mg/ml | Kinetic solubility, Mean conc ([3]; 180 mins (simulated intestinal), 1:1 0.1 M HCl and FaSSIF, listed as 1): 180 mg/mL | Typical water content [4]: 8-15 % w/w

C[S+]([O-])CCCCN=C=S.OC[C@H]1O[C@@H]2O[C@H]3[C@H](O)[C@@H](O)[C@@H](O[C@H]4[C@H](O)[C@@H](O)[C@@H](O[C@H]5[C@H](O)[C@@H](O)[C@@H](O[C@H]6[C@H](O)[C@@H](O)[C@@H](O[C@H]7[C@H](O)[C@@H](O)[C@@H](O[C@H]1[C@H](O)[C@H]2O)O[C@@H]7CO)O[C@@H]6CO)O[C@@H]5CO)O[C@@H]4CO)O[C@@H]3CO [Form 3]
solid state form by XRPD (reflection mode) [5]: still existed as Form 3 | form by XRPD when slurried in water ([6]; 2 volumes H2O, ambient temperature overnight, XRPD after 14 and 36 mins): converted to Form 2 | form by XRPD after slurry sample left at ambient conditions ([6]; 4 further hours at ambient conditions): converted from Form 2 to Form 1 | decomposition by 1H-NMR after compression (Compression testing): No decomposition | form by XRPD after compression (Compression testing): still existed as Form 3 | decomposition by 1H-NMR ([7]; 25° C. and 97% RH for 7 days): no decomposition was evident | form by XRPD ([7]; 25° C. and 97% RH for 7 days): converted at this very high humidity level to Form 1 | decomposition by 1H-NMR ([7]; 40° C. and 75% RH for 7 days): some decomposition had occurred | water content on extended exposure to high humidity ([1]; up to 6 months): does not increase significantly above about 5-6% w/w | equilibrium solubility in words [2]: high and comparable | Equilibrium solubility, Mean Conc [2, 8]: 733 | Equilibrium solubility, Mean Conc ([2]; 0.1M HCl, 24 Hours): 3057 | Equilibrium solubility, Mean Conc [2, 9]: 264 | Equilibrium solubility, Mean Conc [2, 10]: 221 | XRPD analysis of residual solids ([3]; 15 mins (simulated gastric)): Form 1 | Kinetic solubility, Mean conc [3, 11]: approximately 300 mg/ml | Kinetic solubility, Mean conc ([3]; 15 mins (simulated gastric), 0.1 M HCl, Form 3 = Example 5.4.1, listed as 3): 298 mg/mL | XRPD analysis of residual solids ([3]; 30 mins (simulated gastric)): Form 1 | Kinetic solubility, Mean conc [3, 12]: 298 mg/mL | Kinetic solubility, Mean conc [3, 13]: approximately 180 mg/ml | Kinetic solubility, Mean conc ([3]; 60 mins (simulated intestinal), 1:1 0.1 M HCl and FaSSIF, listed as 3): 171 mg/mL | Kinetic solubility, Mean conc [3, 14]: approximately 180 mg/ml | Kinetic solubility, Mean conc ([3]; 180 mins (simulated intestinal), 1:1 0.1 M HCl and FaSSIF, listed as 3): 157 mg/mL | water content after equilibration at ambient conditions ([4]; exposure to ambient conditions (25° C., 40% RH), e.g. 3-7 days): 5-7 % w/w
